Data reported in PubChem BioAssay (NCI).
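GI50 is the concentration that inhibits growth by half. The concentration for full growth arrest is given as TGI.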

Legend:
Test in all cases: inhibition of tumour cell growth, NCI panel, 384-well format
DU-145 prostate = system: DU-145 prostate
BT-549 breast = system: BT-549 breast
HL-60(TB) leukemia = system: HL-60(TB) leukemia
HOP-62 NSCLC = system: HOP-62 NSCLC
PC-3 prostate = system: PC-3 prostate
HOP-92 NSCLC = system: HOP-92 NSCLC
U251 glioblastoma = system: U251 glioblastoma
RPMI-8226 leukemia = system: RPMI-8226 leukemia
CCRF-CEM leukemia = system: CCRF-CEM leukemia
SNB-75 CNS = system: SNB-75 CNS
RXF 393 renal = system: RXF 393 renal
UO-31 renal = system: UO-31 renal
MOLT-4 leukemia = system: MOLT-4 leukemia
SK-MEL-5 melanoma = system: SK-MEL-5 melanoma
MALME-3M melanoma = system: MALME-3M melanoma
LOX IMVI melanoma = system: LOX IMVI melanoma
UACC-257 melanoma = system: UACC-257 melanoma
KM12 colon = system: KM12 colon
NCI-H460 NSCLC = system: NCI-H460 NSCLC
SK-OV-3 ovarian = system: SK-OV-3 ovarian
SF-539 CNS = system: SF-539 CNS
TK-10 renal = system: TK-10 renal
COLO 205 colon = system: COLO 205 colon
MDA-MB-468 breast = system: MDA-MB-468 breast
CAKI-1 renal = system: CAKI-1 renal
HCT-15 colon = system: HCT-15 colon
IGROV1 ovarian = system: IGROV1 ovarian
SNB-19 CNS = system: SNB-19 CNS
M14 melanoma = system: M14 melanoma
SF-268 CNS = system: SF-268 CNS
HCC-2998 colon = system: HCC-2998 colon
MCF7 breast = system: MCF7 breast
HS 578T breast = system: HS 578T breast
NCI-H322M lung = system: NCI-H322M lung
MDA-MB-231 breast = system: MDA-MB-231 breast
NCI-H522 lung = system: NCI-H522 lung
NCI-H23 lung = system: NCI-H23 lung
A498 renal = system: A498 renal
HT29 colon = system: HT29 colon
NCI-H226 lung = system: NCI-H226 lung
T-47D breast = system: T-47D breast
OVCAR-5 ovarian = system: OVCAR-5 ovarian
EKVX NSCLC = system: EKVX NSCLC
MDA-MB-435 melanoma = system: MDA-MB-435 melanoma
SF-295 CNS = system: SF-295 CNS
SW-620 colon = system: SW-620 colon
SN12C renal = system: SN12C renal
OVCAR-8 ovarian = system: OVCAR-8 ovarian
786-0 renal = system: 786-0 renal
OVCAR-3 ovarian = system: OVCAR-3 ovarian
A549 NSCLC = system: A549 NSCLC
HCT-116 colon = system: HCT-116 colon
ACHN renal = system: ACHN renal
SK-MEL-28 melanoma = system: SK-MEL-28 melanoma
UACC-62 melanoma = system: UACC-62 melanoma
OVCAR-4 ovarian = system: OVCAR-4 ovarian
NCI/ADR-RES ovarian = system: NCI/ADR-RES ovarian

Work on `C[C@H]1Oc2cc(cnc2N)-c2c(nn(C)c2C#N)CN(C)C(=O)c2ccc(F)cc21` yielded a GI50 (DU-145 prostate) of 49.8 µM, a TGI (DU-145 prostate) greater than 100 µM and a GI50 (BT-549 breast) greater than 100 µM. The TGI (BT-549 breast) was greater than 100 µM, the GI50 (HL-60(TB) leukemia) was 63.8 µM and the TGI (HL-60(TB) leukemia) was greater than 100 µM. For the same compound, the GI50 (HOP-62 NSCLC) was 15.7 µM, the TGI (HOP-62 NSCLC) was greater than 100 µM and the GI50 (PC-3 prostate) was greater than 100 µM. The TGI (PC-3 prostate) was greater than 100 µM, the GI50 (HOP-92 NSCLC) was 11 µM and the TGI (HOP-92 NSCLC) was 67.6 µM. It also gave a GI50 (U251 glioblastoma) greater than 100 µM, a TGI (U251 glioblastoma) greater than 100 µM and a GI50 (RPMI-8226 leukemia) of 57 µM. For the same compound, the TGI (RPMI-8226 leukemia) was greater than 100 µM, the GI50 (CCRF-CEM leukemia) was 57.1 µM and the TGI (CCRF-CEM leukemia) was greater than 100 µM. The GI50 (SNB-75 CNS) was 34.4 µM, the TGI (SNB-75 CNS) was greater than 84.7 µM and the GI50 (RXF 393 renal) was 11.6 µM. The TGI (RXF 393 renal) was greater than 63.1 µM, the GI50 (UO-31 renal) was 37.3 µM and the TGI (UO-31 renal) was greater than 54 µM. It also gave a GI50 (MOLT-4 leukemia) of 4.84 µM, a TGI (MOLT-4 leukemia) of 18.8 µM and a GI50 (SK-MEL-5 melanoma) of 50.2 µM. It also gave a TGI (SK-MEL-5 melanoma) greater than 100 µM, a GI50 (MALME-3M melanoma) of 26.2 µM and a TGI (MALME-3M melanoma) greater than 100 µM. The GI50 (LOX IMVI melanoma) was greater than 71.9 µM, the TGI (LOX IMVI melanoma) was greater than 100 µM and the GI50 (UACC-257 melanoma) was greater than 100 µM. For the same compound, the TGI (UACC-257 melanoma) was greater than 100 µM, the GI50 (KM12 colon) was 0.364 µM and the TGI (KM12 colon) was greater than 100 µM. For the same compound, the GI50 (NCI-H460 NSCLC) was 35.7 µM, the TGI (NCI-H460 NSCLC) was greater than 100 µM and the GI50 (SK-OV-3 ovarian) was 68.2 µM. It also gave a TGI (SK-OV-3 ovarian) greater than 100 µM, a GI50 (SF-539 CNS) greater than 100 µM and a TGI (SF-539 CNS) greater than 100 µM. For the same compound, the GI50 (TK-10 renal) was greater than 92.9 µM, the TGI (TK-10 renal) was greater than 100 µM and the GI50 (COLO 205 colon) was 11.1 µM. It also gave a TGI (COLO 205 colon) greater than 84.1 µM, a GI50 (MDA-MB-468 breast) of 23.8 µM and a TGI (MDA-MB-468 breast) greater than 86.2 µM. It also gave a GI50 (CAKI-1 renal) of 26.5 µM, a TGI (CAKI-1 renal) greater than 100 µM and a GI50 (HCT-15 colon) of 91.9 µM. It also gave a TGI (HCT-15 colon) greater than 100 µM, a GI50 (IGROV1 ovarian) of 26.1 µM and a TGI (IGROV1 ovarian) greater than 83.6 µM. The GI50 (SNB-19 CNS) was greater than 100 µM, the TGI (SNB-19 CNS) was greater than 100 µM and the GI50 (M14 melanoma) was 56.3 µM. For the same compound, the TGI (M14 melanoma) was greater than 100 µM, the GI50 (SF-268 CNS) was 47.3 µM and the TGI (SF-268 CNS) was greater than 100 µM. For the same compound, the GI50 (HCC-2998 colon) was greater than 100 µM, the TGI (HCC-2998 colon) was greater than 100 µM and the GI50 (MCF7 breast) was 17.5 µM. For the same compound, the TGI (MCF7 breast) was greater than 100 µM, the GI50 (HS 578T breast) was 19.9 µM and the TGI (HS 578T breast) was greater than 100 µM. It also gave a GI50 (NCI-H322M lung) of 23.6 µM, a TGI (NCI-H322M lung) greater than 78.6 µM and a GI50 (MDA-MB-231 breast) of 14.6 µM. For the same compound, the TGI (MDA-MB-231 breast) was 84.5 µM, the GI50 (NCI-H522 lung) was 33.7 µM and the TGI (NCI-H522 lung) was 99.5 µM. The GI50 (NCI-H23 lung) was 24.3 µM, the TGI (NCI-H23 lung) was greater than 100 µM and the GI50 (A498 renal) was greater than 95.6 µM. For the same compound, the TGI (A498 renal) was greater than 100 µM, the GI50 (HT29 colon) was 18 µM and the TGI (HT29 colon) was greater than 100 µM. The GI50 (NCI-H226 lung) was 23 µM, the TGI (NCI-H226 lung) was greater than 73.1 µM and the GI50 (T-47D breast) was 57.2 µM. It also gave a TGI (T-47D breast) greater than 100 µM, a GI50 (OVCAR-5 ovarian) of 37.7 µM and a TGI (OVCAR-5 ovarian) greater than 100 µM. It also gave a GI50 (EKVX NSCLC) of 9.26 µM, a TGI (EKVX NSCLC) of 44.1 µM and a GI50 (MDA-MB-435 melanoma) greater than 100 µM. For the same compound, the TGI (MDA-MB-435 melanoma) was greater than 100 µM, the GI50 (SF-295 CNS) was 72.8 µM and the TGI (SF-295 CNS) was greater than 100 µM. The GI50 (SW-620 colon) was greater than 100 µM, the TGI (SW-620 colon) was greater than 100 µM and the GI50 (SN12C renal) was 61.6 µM. For the same compound, the TGI (SN12C renal) was greater than 100 µM, the GI50 (OVCAR-8 ovarian) was greater than 100 µM and the TGI (OVCAR-8 ovarian) was greater than 100 µM. For the same compound, the GI50 (786-0 renal) was 49.7 µM, the TGI (786-0 renal) was greater than 100 µM and the GI50 (OVCAR-3 ovarian) was greater than 88 µM. For the same compound, the TGI (OVCAR-3 ovarian) was greater than 100 µM, the GI50 (A549 NSCLC) was 22 µM and the TGI (A549 NSCLC) was greater than 100 µM. It also gave a GI50 (HCT-116 colon) of 32.1 µM, a TGI (HCT-116 colon) greater than 100 µM and a GI50 (ACHN renal) of 11.4 µM. For the same compound, the TGI (ACHN renal) was greater than 24.9 µM, the GI50 (SK-MEL-28 melanoma) was greater than 79.1 µM and the TGI (SK-MEL-28 melanoma) was greater than 100 µM. The GI50 (UACC-62 melanoma) was 32.8 µM, the TGI (UACC-62 melanoma) was greater than 100 µM and the GI50 (OVCAR-4 ovarian) was greater than 100 µM. For the same compound, the TGI (OVCAR-4 ovarian) was greater than 100 µM, the GI50 (NCI/ADR-RES ovarian) was 41.6 µM and the TGI (NCI/ADR-RES ovarian) was greater than 100 µM.

In the case of `O=C(c1c(F)ccc(NS(=O)(=O)N2CC[C@@H](F)C2)c1F)c1c[nH]c2ncc(-c3cnc(C4CC4)nc3)cc12`, the GI50 (DU-145 prostate) is reported as 4.58 µM, the TGI (DU-145 prostate) is reported as 17.7 µM and the GI50 (HOP-62 NSCLC) is reported as 5.2 µM. The TGI (HOP-62 NSCLC) was 20.6 µM, the GI50 (HOP-92 NSCLC) was 4.13 µM and the TGI (HOP-92 NSCLC) was 25.1 µM. For the same compound, the GI50 (SNB-75 CNS) was 5.65 µM, the TGI (SNB-75 CNS) was 17.9 µM and the GI50 (UO-31 renal) was 8.46 µM. For the same compound, the TGI (UO-31 renal) was 23.5 µM, the GI50 (MALME-3M melanoma) was less than 0.01 µM and the GI50 (LOX IMVI melanoma) was 0.0301 µM. For the same compound, the TGI (LOX IMVI melanoma) was 4.13 µM, the GI50 (UACC-257 melanoma) was less than 0.01 µM and the TGI (UACC-257 melanoma) was 0.0246 µM. The GI50 (KM12 colon) was 6.17 µM, the TGI (KM12 colon) was 18.8 µM and the GI50 (TK-10 renal) was 11.8 µM. The TGI (TK-10 renal) was 35.4 µM, the GI50 (COLO 205 colon) was less than 0.01 µM and the TGI (COLO 205 colon) was 0.021 µM. It also gave a GI50 (CAKI-1 renal) of 3.09 µM, a TGI (CAKI-1 renal) of 9.22 µM and a GI50 (HCT-15 colon) of 4.8 µM. For the same compound, the TGI (HCT-15 colon) was 20.9 µM, the GI50 (IGROV1 ovarian) was 3.08 µM and the TGI (IGROV1 ovarian) was 13.5 µM. The GI50 (M14 melanoma) was less than 0.01 µM, the TGI (M14 melanoma) was 0.0149 µM and the GI50 (NCI-H23 lung) was 4 µM. The TGI (NCI-H23 lung) was 15.3 µM, the GI50 (A498 renal) was 6.38 µM and the TGI (A498 renal) was 24.3 µM. For the same compound, the GI50 (HT29 colon) was 0.015 µM, the TGI (HT29 colon) was 14.5 µM and the GI50 (NCI-H226 lung) was 5.36 µM. The TGI (NCI-H226 lung) was 18 µM, the GI50 (OVCAR-5 ovarian) was 8.29 µM and the TGI (OVCAR-5 ovarian) was 27.7 µM. For the same compound, the GI50 (EKVX NSCLC) was 8.14 µM, the TGI (EKVX NSCLC) was 21.6 µM and the GI50 (SF-295 CNS) was 5.27 µM. The TGI (SF-295 CNS) was 19.8 µM, the GI50 (SN12C renal) was 7.66 µM and the TGI (SN12C renal) was greater than 100 µM. For the same compound, the GI50 (786-0 renal) was 5.62 µM, the TGI (786-0 renal) was 29.7 µM and the GI50 (ACHN renal) was 4.77 µM. It also gave a TGI (ACHN renal) of 20.7 µM, a GI50 (SK-MEL-28 melanoma) of less than 0.01 µM and a TGI (SK-MEL-28 melanoma) of 0.0127 µM. It also gave a GI50 (UACC-62 melanoma) of less than 0.01 µM, a TGI (UACC-62 melanoma) of 0.0116 µM and a GI50 (OVCAR-4 ovarian) of 11.2 µM. For the same compound, the TGI (OVCAR-4 ovarian) was 27.6 µM, the GI50 (NCI/ADR-RES ovarian) was 19 µM and the TGI (NCI/ADR-RES ovarian) was 41.3 µM.
